The results in this text go back to patent publication US20160194358A1, “LINEAR PEPTIDE ANTIBIOTCS” (priority 2013, published 2016).

Test [1] concerns the target S. aureus SPase (Staphylococcus aureus, UniProt P0A070). The test can be described thus: biochemical. Particulars: IC 50 (nM) S. aureus, 20 μM substrate, 10 minutes preincubation. The method, then:
Full length His-tagged S. aureus SPase protein was expressed similarly from E. coli BL21(DE3) containing the plasmid pCDF1-SaSpsB and purified similarly to the E. coli protein with the following exceptions. SPase protein was solubilized using 300 mM NaCl, 20 mM Tris pH 8.06, 5 mM Imidazole, 10% glycerol, 1% Triton X-100, prior to purification in Ni-NTA Superflow resin and resin bound protein was washed in a similar buffer containing 1% Elugent in place of Triton X-100 prior to protein eluted in wash buffer supplemented with 300 mM imidazole. […] All protein concentrations were determined by BCA assay.
(§1) Signal peptidase enzyme activity of the above proteins was measured using two fluorogenic peptide substrates (decanoyl-LSSPAYNO2A ? ADKabzPD and decanoyl-LTPTAYNO2A ? ASKKabzDD), where abz is the fluorescence donor 2-aminobenzamide, YNO2 is the fluorescence acceptor 3-nitrotyrosine, and the cleavage site is indicated with an arrow. Enzyme mix solution was prepared by diluting 2.5 nM of Escherichia coli or Staphylococcus aureus SPase protein into reaction buffers consisting of 20 mM PO4 pH 7.4, 100 mM NaCl, and 1% Elugent™ or octyl phenoxypolyethoxylethanol detergent at a concentration of 0.25% or 0.0625%. Reactions were initiated by the addition of substrate to a final concentration of 20 μM. Reaction progress was monitored by measuring the increase in fluorescence signal (excitation at 314 nm, emission at 416 nm) using a SpectraMax M2 fluorescence microplate reader. To determine IC50 values of test compounds, compound stock solutions were prepared in DMSO at a concentration of 1 mM. Three-folder serial dilutions of test compounds, starting at 10 μM, were prepared in enzyme mix solution and incubated at room temperature for 10 minutes. Following this incubation, fluorogenic substrate was added to a final concentration of 20 μM and the increase in fluorescence, corresponding to substrate cleavage, was monitored continuously at room temperature for 1 hour. Initial reaction rates were calculated based on the rate of increase in fluorescence during the reaction. Reaction rates were plotted as a function of compound concentration, and IC50 values are determined nonlinear regression analysis (SoftMaxPro 5.4, Molecular Devices™) of the sigmoidal dose-response curve.

Test [2] concerns Escherichia coli strain MC4100 IMP-4213, which harbors an LptD mutation. Particulars: E. coli MC4100 IMP-4213, 35° C., 22 hours. The procedure, abridged: (§2)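 CLSI broth microdilution in cation-adjusted Mueller Hinton Broth with 0.002% Tween-80, two-fold dilutions starting at 64 μg/ml.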
In test [3] the test system is methicillin resistant Staphylococcus aureus (MRSA) strain USA300 (NRS384). Particulars: MRSA USA300 (NRS384), 35° C., 22 hours. The gist of the method:
as §2

Test [4] concerns the target T1, E. coli SPase (Escherichia coli, UniProt P00803).
T1 construct: Full length His-tagged E. coli SPase proteins; His; made in house; host or cells: E. coli BL21(DE3)
Put plainly: Biochemical SPase activity assay, fluorogenic peptide substrate, E. coli enzyme. Particulars: 20 μM substrate, 10 minutes preincubation, read-out: IC 50 (nM) E. coli. As to the method: Full length His-tagged E. coli SPase proteins were expressed in E. coli BL21(DE3) containing the plasmid pET23-lepB. Briefly, saturated overnight cultures grown in 20 ml of Luria-Bertani medium supplemented with ampicillin were subcultures into 1.5 L of Luria-Bertani, and shaken at 37° C. until an optical density at 600 nm of 0.4-0.5 was achieved.
as §1

Converted amounts (≈) assume the structure as drawn. Read-outs that look alike come from different tables or passages of the source. *1 amine or outer side, *2 acyl side, *3 side chain or, on linkers, in order; H or OH if unused. Where a SMILES comes first, the peptide text is derived from it. [ ]: non-standard residue; d: D form. The star is where a group is joined. ξ: configuration not given here. boroAla((+)-pinanediol) = C[C@H](N*)B1O[C@@H]2C[C@@H]3C[C@@H](C3(C)C)[C@]2(C)O1; Benzoyl(4-(4-Cl-Ph)) = O=C(c1ccc(-c2ccc(Cl)cc2)cc1)*; ξ3Amino2oxobutanoyl = CC(N[*:1])C(=O)C(=O)[*:2]; X1 = C[C@H](N[*:1])C(=O)C(=O)[*:2]; X15 = Cc1nnc(C(=O)[C@H](C)N*)o1; Thr(3ξ) = CC(O)[C@H](N)C(=O)O; NHPhenethyl = c1ccc(CCN*)cc1; Decanoyl = CCCCCCCCCC(=O)*; Dab = NCC[C@H](N)C(=O)O; Dap = NC[C@H](N)C(=O)O; βAla = NCCC(=O)O

Sequence of S. aureus SPase (P0A070 whole entry): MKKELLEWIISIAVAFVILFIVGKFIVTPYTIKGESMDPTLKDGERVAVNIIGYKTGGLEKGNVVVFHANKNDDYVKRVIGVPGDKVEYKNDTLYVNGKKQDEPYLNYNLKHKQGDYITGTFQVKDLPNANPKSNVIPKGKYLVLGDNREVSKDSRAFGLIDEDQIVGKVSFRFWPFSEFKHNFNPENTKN
T1 sequence (P00803 whole entry): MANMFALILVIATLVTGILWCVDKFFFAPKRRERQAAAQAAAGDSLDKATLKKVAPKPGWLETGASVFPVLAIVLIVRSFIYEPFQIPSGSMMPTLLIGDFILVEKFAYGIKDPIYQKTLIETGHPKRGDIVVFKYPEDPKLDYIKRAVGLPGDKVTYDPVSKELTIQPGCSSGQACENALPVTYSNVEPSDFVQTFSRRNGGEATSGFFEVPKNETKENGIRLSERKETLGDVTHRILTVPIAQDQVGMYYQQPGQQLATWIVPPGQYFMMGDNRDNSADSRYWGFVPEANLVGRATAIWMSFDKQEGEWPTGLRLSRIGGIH

`CCCCCCCCCC(=O)N[C@@H](CCN)C(=O)N[C@H](C(=O)N[C@@H](C)C(=O)N[C@@H](CCCCN)C(=O)N[C@@H](C)B1O[C@@H]2C[C@@H]3C[C@@H](C3(C)C)[C@]2(C)O1)[C@@H](C)O` [Compound 117] (Decanoyl-[Dab]TAK-{boroAla((+)-pinanediol)}): the IC50 was found to be 150 nM in test [1] and 20 nM in test [4]. In addition, the “MIC (μg/mL) E. coli” value in test [2] amounted to 8 µg/mL (≈ 10.3 µM). Further, the “MIC (μg/mL) S. aureus” value in test [3] was found to be 2 µg/mL (≈ 2.57 µM).

Take `CCCCCCCCCCCCCC(=O)N[C@@H](CCCCN)C(=O)N[C@@H](C)C(=O)N[C@@H](CCCCN)C(=O)N[C@@H](C)B1O[C@@H]2C[C@@H]3C[C@@H](C3(C)C)[C@]2(C)O1` [Compound 123]: the IC50 in test [1] stood at 7800 nM; in test [4] it was 11000 nM. The “MIC (μg/mL) E. coli” value in test [2] turned out to be 4 µg/mL (≈ 5.26 µM). Moreover, in test [3], the “MIC (μg/mL) S. aureus” value was determined as 2 µg/mL (≈ 2.63 µM).

On to `CCCCc1ccc(-c2ccc(C(=O)N[C@@H](CCN)C(=O)N[C@H](C(=O)N[C@@H](C)C(=O)N[C@@H](CCCCN)C(=O)N[C@@H](C)C(=O)C3CO3)[C@@H](C)O)cc2)cc1` (single isomer, unassigned) [Compound 201 P1], for which the IC50 in test [1] was found to be 10 nM; in test [4] it was 7 nM. Also, the “MIC (μg/mL) E. coli” value in test [2] (listed as 201 P1) worked out at 1 µg/mL (≈ 1.33 µM). The “MIC (μg/mL) S. aureus” value in test [3] (listed as 201 P1) was 0.09 µg/mL (≈ 0.12 µM).

On to `C[C@H](NC(=O)[C@@H](NC(=O)[C@H](CN)NC(=O)c1ccc(-c2ccc(Cl)cc2)cc1)[C@@H](C)O)C(=O)N[C@@H](CCCCN)C(=O)N[C@@H](C)C(=O)C(=O)NCCc1ccccc1` [Compound 110] ({Benzoyl(4-(4-Cl-Ph))}-[Dap]TAK[X1]-NHPhenethyl), for which the figures for the IC50 in test [1] and in test [4] were 3800 nM and 6000 nM, respectively. Also, the “MIC (μg/mL) E. coli” value in test [2] amounted to 64 µg/mL (≈ 77.9 µM). For the same compound, in test [3], the “MIC (μg/mL) S. aureus” value amounted to 32 µg/mL (≈ 39 µM).

Regarding `CCCCc1ccc(-c2ccc(C(=O)N[C@@H](CCN)C(=O)N[C@H](C(=O)N[C@@H](C)C(=O)N[C@@H](CCCCN)C(=O)N[C@@H](C)C(=O)C3CO3)[C@@H](C)O)cc2)cc1` (single isomer, unassigned) [Compound 201 P2], the IC50 in test [1] was found to be 210 nM; in test [4], 150 nM. For the same compound, in test [2] (listed as 201 P2), the “MIC (μg/mL) E. coli” value is 5.7 µg/mL (≈ 7.58 µM). Further, in test [3] (listed as 201 P2), the “MIC (μg/mL) S. aureus” value worked out at 2 µg/mL (≈ 2.66 µM).

For the compound `CCCCc1ccc(-c2ccc(C(=O)N[C@@H](CCN)C(=O)N[C@H](C(=O)N[C@@H](C)C(=O)N[C@@H](CCCCN)C(=O)N[C@@H](C)C(=O)C3OC3C)[C@@H](C)O)cc2)cc1` (single isomer, unassigned) [Compound 205 P1], the IC50 in test [1] and in test [4] was more than 10000 nM each time. In addition, the “MIC (μg/mL) E. coli” value in test [2] (listed as 205 P1) was found to be 32 µg/mL (≈ 41.8 µM). Moreover, in test [3] (listed as 205 P1), the “MIC (μg/mL) S. aureus” value was more than 64 µg/mL.

On to `CCCCc1ccc(-c2ccc(C(=O)N[C@@H](CCN)C(=O)N[C@H](C(=O)N[C@@H](C)C(=O)N[C@@H](CCCCN)C(=O)N[C@@H](C)C(=O)C3(C)CO3)[C@@H](C)O)cc2)cc1` (single isomer, unassigned) [Compound 207 P2], for which the IC50 in test [1] turned out to be 1300 nM; in test [4] it was 9900 nM. The “MIC (μg/mL) E. coli” value in test [2] (listed as 207 P2) stood at 32 µg/mL (≈ 41.8 µM). Also, the “MIC (μg/mL) S. aureus” value in test [3] (listed as 207 P2) worked out at 32 µg/mL (≈ 41.8 µM).

`Cc1nnc(C(=O)[C@H](C)NC(=O)[C@H](CCCCN)NC(=O)[C@H](C)NC(=O)[C@H](CCCCN)NC(=O)[C@H](CN)NC(=O)c2ccc(-c3ccc(Cl)cc3)cc2)o1` [Compound 213] ({Benzoyl(4-(4-Cl-Ph))}-[Dap]KAK-X15): the IC50 in test [1] is more than 10000 nM; in test [4] it was 49 nM. In addition, the “MIC (μg/mL) E. coli” value in test [2] worked out at 64 µg/mL (≈ 81.7 µM). Also, the “MIC (μg/mL) S. aureus” value in test [3] turned out to be 32 µg/mL (≈ 40.9 µM).

For the compound `CCCCCCCCCC(=O)NCCC(=O)N[C@@H](CCCCN)C(=O)N[C@H](C(=O)N[C@@H](C)C(=O)N[C@@H](CC(N)=O)C(=O)NC(C)C(=O)C(=O)NC)C(C)O` (stereo partly drawn) [Compound 106] ({Decanoyl-βAla}-K[Thr(3ξ)]AN[ξ3Amino2oxobutanoyl]-NHMe), the IC50 in test [1] amounted to 45 nM; in test [4], 6200 nM. Moreover, the “MIC (μg/mL) E. coli” value in test [2] was more than 64 µg/mL. Moreover, the “MIC (μg/mL) S. aureus” value in test [3] is more than 64 µg/mL.
